How the values were obtained:
barnyard grass [1] = test: Test Example 3: herbicidal effect by foliage application, Wagner pot (Table 18, symbol H); format: in vivo, barnyard grass (Echinochloa crus-galli)
How it was run: (§1)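 Plants were sown in alluvial soil held under 0.1–0.5 cm standing water and grown 14 days in a greenhouse at 25–30 °C. An emulsifiable formulation, water-diluted to the set dose, was then sprayed onto the foliage, and effects were scored three weeks later using previously defined criteria.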

Chinese sprangletop = test: Test Example 3: herbicidal effect by foliage application, Wagner pot (Table 18, symbol D); format: in vivo, chinese sprangletop (Leptochloa chinensis)
How it was run: as §1

rice flat sedge = test: Test Example 3: herbicidal effect by foliage application, Wagner pot (Table 18, symbol E); format: in vivo, rice flat sedge (Cyperus iria)
How it was run: as §1

southern crabgrass [2] = test: Test Example 4: herbicidal effect by soil treatment (Table 19, symbol F); format: in vivo, southern crabgrass (Digitaria ciliaris)
How it was run: (§2)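 Herbicidal effect was rated 3 weeks after treatment, using the scoring criteria of an earlier test. The compound, formulated as an emulsion and diluted in water to a set herbicide amount, had been sprayed uniformly on soil over freshly sown seeds. Growth took place in a greenhouse at 25° C. to 30° C.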

green foxtail [3] = test: Test Example 4: herbicidal effect by soil treatment (Table 19, symbol G); format: in vivo, green foxtail (Setaria viridis)
How it was run: as §2

barnyard grass [4] = test: Test Example 4: herbicidal effect by soil treatment (Table 19, symbol H); format: in vivo, barnyard grass (Echinochloa crus-galli)
How it was run: as §2

wild oat [5] = test: Test Example 4: herbicidal effect by soil treatment (Table 19, symbol I); format: in vivo, wild oat (Avena fatua)
How it was run: as §2

blackgrass [6] = test: Test Example 4: herbicidal effect by soil treatment (Table 19, symbol J); format: in vivo, blackgrass (Alopecurus myosuroides)
How it was run: as §2

Italian ryegrass [7] = test: Test Example 4: herbicidal effect by soil treatment (Table 19, symbol K); format: in vivo, Italian ryegrass (Lolium multiflorum)
How it was run: as §2

windgrass [8] = test: Test Example 4: herbicidal effect by soil treatment (Table 19, symbol L); format: in vivo, windgrass (Apera spica-venti)
How it was run: as §2

velvetleaf [9] = test: Test Example 4: herbicidal effect by soil treatment (Table 19, symbol M); format: in vivo, velvetleaf (Abutilon theophrasti)
How it was run: as §2

redroot pigweed [10] = test: Test Example 4: herbicidal effect by soil treatment (Table 19, symbol N); format: in vivo, redroot pigweed (Amaranthus retroflexus)
How it was run: as §2

lambsquarters [11] = test: Test Example 4: herbicidal effect by soil treatment (Table 19, symbol O); format: in vivo, lambsquarters (Chenopodium album)
How it was run: as §2

chickweed [12] = test: Test Example 4: herbicidal effect by soil treatment (Table 19, symbol P); format: in vivo, common chickweed (Stellaria media)
How it was run: as §2

persian speedwell [13] = test: Test Example 4: herbicidal effect by soil treatment (Table 19, symbol R); format: in vivo, Persian speedwell (Veronica persica)
How it was run: as §2

southern crabgrass [14] = test: Test Example 5: herbicidal effect by foliage application, plastic box (Table 20, symbol F); format: in vivo, southern crabgrass (Digitaria ciliaris)
How it was run: (§3)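 Foliar spray test: emulsion formulation diluted in water to a set application rate, sprayed onto 14-day-old plants raised in diluvial soil at 25° C to 30° C under glass. Both herbicidal effect and crop effect rated visually three weeks later.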

green foxtail [15] = test: Test Example 5: herbicidal effect by foliage application, plastic box (Table 20, symbol G); format: in vivo, green foxtail (Setaria viridis)
How it was run: as §3

barnyard grass [16] = test: Test Example 5: herbicidal effect by foliage application, plastic box (Table 20, symbol H); format: in vivo, barnyard grass (Echinochloa crus-galli)
How it was run: as §3

wild oat [17] = test: Test Example 5: herbicidal effect by foliage application, plastic box (Table 20, symbol I); format: in vivo, wild oat (Avena fatua)
How it was run: as §3

blackgrass [18] = test: Test Example 5: herbicidal effect by foliage application, plastic box (Table 20, symbol J); format: in vivo, blackgrass (Alopecurus myosuroides)
How it was run: as §3

Italian ryegrass [19] = test: Test Example 5: herbicidal effect by foliage application, plastic box (Table 20, symbol K); format: in vivo, Italian ryegrass (Lolium multiflorum)
How it was run: as §3

windgrass [20] = test: Test Example 5: herbicidal effect by foliage application, plastic box (Table 20, symbol L); format: in vivo, windgrass (Apera spica-venti)
How it was run: as §3

velvetleaf [21] = test: Test Example 5: herbicidal effect by foliage application, plastic box (Table 20, symbol M); format: in vivo, velvetleaf (Abutilon theophrasti)
How it was run: as §3

redroot pigweed [22] = test: Test Example 5: herbicidal effect by foliage application, plastic box (Table 20, symbol N); format: in vivo, redroot pigweed (Amaranthus retroflexus)
How it was run: as §3

lambsquarters [23] = test: Test Example 5: herbicidal effect by foliage application, plastic box (Table 20, symbol O); format: in vivo, lambsquarters (Chenopodium album)
How it was run: as §3

chickweed [24] = test: Test Example 5: herbicidal effect by foliage application, plastic box (Table 20, symbol P); format: in vivo, common chickweed (Stellaria media)
How it was run: as §3

persian speedwell [25] = test: Test Example 5: herbicidal effect by foliage application, plastic box (Table 20, symbol R); format: in vivo, Persian speedwell (Veronica persica)
How it was run: as §3

[26] = foliage application, AAH 80 g/ha, three weeks after application
[27] = amount of applied herbicide 320 g/ha
[28] = amount of applied herbicide 320 g/ha, foliage application after 14-day growth, evaluated three weeks after application

COc1nn(C)c(=O)c(-c2c(-c3ccc(-c4ccccc4)cc3)sc3ccccc23)c1O [1-166]
herbicidal effect on H (barnyard grass), rating 0-5 (barnyard grass [1]; 80 g/ha): 4 (Herbicidal rate of 70% or more and less than 90%)
herbicidal effect on D (Chinese sprangletop), rating 0-5 (Chinese sprangletop; 80 g/ha): 4 (Herbicidal rate of 70% or more and less than 90%)
herbicidal effect on E (rice flat sedge), rating 0-5 (rice flat sedge; 80 g/ha): 5 (Herbicidal rate of 90% or more (almost completely withered))
F: southern crabgrass, herbicidal effect rating (southern crabgrass [2]; AAH 80 g/ha): 0 (Herbicidal rate of 5% or less (almost no effect))
G: green foxtail, herbicidal effect rating (green foxtail [3]; AAH 80 g/ha): 0 (Herbicidal rate of 5% or less (almost no effect))
H: barnyard grass, herbicidal effect rating (barnyard grass [4]; AAH 80 g/ha): 0 (Herbicidal rate of 5% or less (almost no effect))
I: wild oat, herbicidal effect rating (wild oat [5]; AAH 80 g/ha): 0 (Herbicidal rate of 5% or less (almost no effect))
J: blackgrass, herbicidal effect rating (blackgrass [6]; AAH 80 g/ha): 0 (Herbicidal rate of 5% or less (almost no effect))
K: Italian ryegrass, herbicidal effect rating (Italian ryegrass [7]; AAH 80 g/ha): 0 (Herbicidal rate of 5% or less (almost no effect))
L: windgrass, herbicidal effect rating (windgrass [8]; AAH 80 g/ha): 0 (Herbicidal rate of 5% or less (almost no effect))
M: velvetleaf, herbicidal effect rating (velvetleaf [9]; AAH 80 g/ha): 0 (Herbicidal rate of 5% or less (almost no effect))
N: redroot pigweed, herbicidal effect rating (redroot pigweed [10]; AAH 80 g/ha): 0 (Herbicidal rate of 5% or less (almost no effect))
O: lambsquarters, herbicidal effect rating (lambsquarters [11]; AAH 80 g/ha): 0 (Herbicidal rate of 5% or less (almost no effect))
P: chickweed, herbicidal effect rating (chickweed [12]; AAH 80 g/ha): 4 (Herbicidal rate of 70% or more and less than 90%)
R: persian speedwell, herbicidal effect rating (persian speedwell [13]; AAH 80 g/ha): 1 (Herbicidal rate of 5% or more and less than 20%)
F: southern crabgrass, herbicidal effect (southern crabgrass [14]; [26]): 0 (Herbicidal rate of 5% or less (almost no effect))
G: green foxtail, herbicidal effect (green foxtail [15]; [26]): 0 (Herbicidal rate of 5% or less (almost no effect))
H: barnyard grass, herbicidal effect (barnyard grass [16]; [26]): 0 (Herbicidal rate of 5% or less (almost no effect))
I: wild oat, herbicidal effect (wild oat [17]; [26]): 0 (Herbicidal rate of 5% or less (almost no effect))
J: blackgrass, herbicidal effect (blackgrass [18]; [26]): 0 (Herbicidal rate of 5% or less (almost no effect))
K: Italian ryegrass, herbicidal effect (Italian ryegrass [19]; [26]): 0 (Herbicidal rate of 5% or less (almost no effect))
L: windgrass, herbicidal effect (windgrass [20]; [26]): 0 (Herbicidal rate of 5% or less (almost no effect))
M: velvetleaf, herbicidal effect (velvetleaf [21]; [26]): 0 (Herbicidal rate of 5% or less (almost no effect))
N: redroot pigweed, herbicidal effect (redroot pigweed [22]; [26]): 3 (Herbicidal rate of 40% or more and less than 70%)
O: lambsquarters, herbicidal effect (lambsquarters [23]; [26]): 2 (Herbicidal rate of 20% or more and less than 40%)
P: chickweed, herbicidal effect (chickweed [24]; [26]): 3 (Herbicidal rate of 40% or more and less than 70%)
R: persian speedwell, herbicidal effect (persian speedwell [25]; [26]): 5 (Herbicidal rate of 90% or more (almost completely withered))

Cc1nn(C)c(=O)c(-c2c(-c3ccc4c(c3)OCO4)sc3cc(F)c(F)cc23)c1O [5-035]
herbicidal effect on barnyard grass (H) (barnyard grass [1]; 320 g/ha): 4 (Herbicidal rate of 70% or more and less than 90%)
herbicidal effect on Chinese sprangletop (D) (Chinese sprangletop; 320 g/ha): 3 (Herbicidal rate of 40% or more and less than 70%)
herbicidal effect on rice flat sedge (E) (rice flat sedge; 320 g/ha): 3 (Herbicidal rate of 40% or more and less than 70%)
F: southern crabgrass, herbicidal effect grade (southern crabgrass [2]; [27]): 1 (Herbicidal rate of 5% or more and less than 20%)
G: green foxtail, herbicidal effect grade (green foxtail [3]; [27]): 2 (Herbicidal rate of 20% or more and less than 40%)
H: barnyard grass, herbicidal effect grade (barnyard grass [4]; [27]): 3 (Herbicidal rate of 40% or more and less than 70%)
I: wild oat, herbicidal effect grade (wild oat [5]; [27]): 0 (Herbicidal rate of 5% or less (almost no effect))
J: blackgrass, herbicidal effect grade (blackgrass [6]; [27]): 0 (Herbicidal rate of 5% or less (almost no effect))
K: Italian ryegrass, herbicidal effect grade (Italian ryegrass [7]; [27]): 0 (Herbicidal rate of 5% or less (almost no effect))
L: windgrass, herbicidal effect grade (windgrass [8]; [27]): 0 (Herbicidal rate of 5% or less (almost no effect))
M: velvetleaf, herbicidal effect grade (velvetleaf [9]; [27]): 0 (Herbicidal rate of 5% or less (almost no effect))
N: redroot pigweed, herbicidal effect grade (redroot pigweed [10]; [27]): 1 (Herbicidal rate of 5% or more and less than 20%)
O: lambsquarters, herbicidal effect grade (lambsquarters [11]; [27]): 3 (Herbicidal rate of 40% or more and less than 70%)
P: chickweed, herbicidal effect grade (chickweed [12]; [27]): 1 (Herbicidal rate of 5% or more and less than 20%)
R: persian speedwell, herbicidal effect grade (persian speedwell [13]; [27]): 5 (Herbicidal rate of 90% or more (almost completely withered))
Herbicidal effect by foliage application, F: southern crabgrass (southern crabgrass [14]; [28]): 1 (Herbicidal rate of 5% or more and less than 20%)
Herbicidal effect by foliage application, G: green foxtail (green foxtail [15]; [28]): 0 (Herbicidal rate of 5% or less (almost no effect))
Herbicidal effect by foliage application, H: barnyard grass (barnyard grass [16]; [28]): 2 (Herbicidal rate of 20% or more and less than 40%)
Herbicidal effect by foliage application, I: wild oat (wild oat [17]; [28]): 0 (Herbicidal rate of 5% or less (almost no effect))
Herbicidal effect by foliage application, J: blackgrass (blackgrass [18]; [28]): 0 (Herbicidal rate of 5% or less (almost no effect))
Herbicidal effect by foliage application, K: Italian ryegrass (Italian ryegrass [19]; [28]): 0 (Herbicidal rate of 5% or less (almost no effect))
Herbicidal effect by foliage application, L: windgrass (windgrass [20]; [28]): 5 (Herbicidal rate of 90% or more (almost completely withered))
Herbicidal effect by foliage application, M: velvetleaf (velvetleaf [21]; [28]): 5 (Herbicidal rate of 90% or more (almost completely withered))
Herbicidal effect by foliage application, N: redroot pigweed (redroot pigweed [22]; [28]): 5 (Herbicidal rate of 90% or more (almost completely withered))
Herbicidal effect by foliage application, O: lambsquarters (lambsquarters [23]; [28]): 5 (Herbicidal rate of 90% or more (almost completely withered))
Herbicidal effect by foliage application, P: chickweed (chickweed [24]; [28]): 5 (Herbicidal rate of 90% or more (almost completely withered))
Herbicidal effect by foliage application, R: persian speedwell (persian speedwell [25]; [28]): 5 (Herbicidal rate of 90% or more (almost completely withered))

Source: US20230085307A1, “PYRIDAZINONE COMPOUND AND HERBICIDE” (NISSAN CHEMICAL CORPORATION, priority 2019, published 2023)
